{
  "source": "patent US8063041B2",
  "about": "(Wyeth LLC, priority 2009, dated 2011)",
  "key": {"ovariectomized rat": {"tested_on": "ovariectomized rat", "conditions": "ovariectomized rat model of osteopenia; cited from earlier work"}, "[1]": {"tested_on": "MCF-7 cell line (human breast cancer cell line)", "conditions": "cited from earlier work"}, "uterine response": {"tested_on": "uterine response", "conditions": "preclinical models of uterine stimulation; cited from earlier work"}, "[2]": {"experiment": "Solubility of bazedoxifene acetate forms (dynamic dissolution method using Crystal-16 and HPLC method)", "assay_type": "physicochemical", "conditions": "for solubility compared with Form B: crystallization solvent", "description": "The profiles of the temperature and magnetic stirring speed for each row may be independently adjusted. The turbidity of each vial was monitored and plotted with the temperature profiles to determine dissolution and precipitation points of solids. A pre-weighed amount of solid and solvent were mixed together in clear glass vials, and were heated slowly (at 0.2° C./min). The dissolution temperature was recorded. The concentration of the solution (calculated based on the weight of solid and solvent) was treated as the saturation concentration at the recorded temperature, and solubility was calculated based on this concentration. […] The suspension was filtered after stirring for 30 minutes and the solution concentration was analyzed by HPLC. The measured solubility data for the two methods are plotted in FIGS. 4 and 5."}},
  "data": [
    {"smiles": "Cc1c(-c2ccc(O)cc2)n(Cc2ccc(OCCN3CCCCCC3)cc2)c2ccc(O)cc12", "note": "[bazedoxifene acetate, 1-[4-(2-azepan-1-yl-ethoxy)-benzyl]-2-(4-hydroxy-phenyl)-3-methyl-1H-indol-5-ol acetic acid]", "values": [
      {"measurement": "preventing bone loss", "setting": "ovariectomized rat", "result": "estrogen agonist-like effect"},
      {"measurement": "reducing cholesterol", "setting": "ovariectomized rat", "result": "estrogen agonist-like effect"},
      {"measurement": "estrogen agonist/antagonist behaviour", "setting": "[1]", "result": "behaves as an estrogen antagonist"},
      {"measurement": "stimulation of uterine response", "setting": "uterine response", "result": "little or no stimulation"}
    ]},
    {"smiles": "CC(=O)O.Cc1c(-c2ccc(O)cc2)n(Cc2ccc(OCCN3CCCCCC3)cc2)c2ccc(O)cc12", "note": "[Form A]", "values": [
      {"measurement": "solubility compared with other forms", "setting": "[2]; all conditions studied, crystallization solvent and slurry test solvent", "result": "higher than Forms B and D"}
    ]},
    {"smiles": "Cc1c(-c2ccc(O)cc2)n(Cc2ccc(OCCN3CCCCCC3)cc2)c2ccc(O)cc12", "note": "[Form D, 1-[4-(2-azepan-1-yl-ethoxy)-benzyl]-2-(4-hydroxy-phenyl)-3-methyl-1H-indol-5-ol acetic acid]", "values": [
      {"measurement": "solubility compared with Form A", "setting": "[2]; at 0-60° C.", "result": "less soluble"},
      {"measurement": "solubility compared with Form B", "setting": "[2]; above about 30° C.", "result": "slightly higher than that of Form B"},
      {"measurement": "solubility compared with Form B", "setting": "[2]; below about 30° C.", "result": "very similar to Form B solubility"}
    ]}
  ]
}
